Assay results reported in US20230069963A1, “PYRAZOLO[1,5-A]PYRIMIDINE MACROCYCLIC COMPOUND” (priority 2018, published 2023).

Experiments:
RSV ATCC VR-1540 (A2) = assay: microbe, parasite or virus in culture; format: cell-based; conditions: human respiratory syncytial virus, HEp-2, 96 h; Hep2 cells, incubated for 4 days, CPE detected with XTT assay (absorbance 450 nm); read-out: EC50 (nmol/L) against RSV A2 strain
[1] = test system: F protein D486N mutant strain of RSV A2 strain; format: cell-based, respiratory syncytial virus (RSV); conditions: Hep2 cells, incubated for 4 days, CPE detected with XTT assay (absorbance 450 nm); read-out: EC50 (nmol/L) against F protein D486N mutant strain of RSV A2 strain

Row | Molecule | EC50 (RSV ATCC VR-1540 (A2)) | EC50 [1]
1 | CN1CCNC(=O)COc2ccc(F)cc2C(=O)N2CCCCC2c2cc3nc(N4CCC(N)C4)cc1n3n2 [Example 1, (18aS)-13-[(3S)-3-aminopyrrolidin-1-yl]-2-fluoro-11-methyl-8,9,10,11,19,20,21,22-octahydro-18aH,24H-18,15-(metheno)pyrido[2,1-l]pyrimido[6,1-h][1,4,7,9,10,13]benzoxapentaazacyclohexadecine-7,24(6H)-dione] | 2.07 nmol/L | 3.17 nmol/L
2 | CN1CCNC(=O)COc2ccc(F)cc2C(=O)N2CCCC[C@H]2c2cc3nc(N4CCC4)cc1n3n2 [Example 2, (18aS)-13-(azetidin-1-yl)-2-fluoro-1-methyl-8,9,10,11,19,20,21,22-octahydro-18aH,24H-18,15-(metheno)pyrido[2,1-l]pyrimido[6,1-h][1,4,7,9,10,13]benzoxapentaazacyclohexadecine-7,24(6H)-dione] | 0.8 nmol/L | 3.06 nmol/L
3 | CN1CCCNC(=O)COc2ccc(F)cc2C(=O)N2CCCC[C@H]2c2cc3nc(N4CC(N)C4)cc1n3n2 [Example 57, (19aS)-14-(3-aminoazetidin-1-yl)-2-fluoro-12-methyl-9,10,11,12,20,21,22,23-octahydro-6H, 19aH,25H-19,16-(metheno)pyrido[2,1-m]pyrimido[6,1-i][1,4,8,10,11,14]benzoxapentaazacycloheptadecine-7,25(8H)-dione] | 2.11 nmol/L | 12.6 nmol/L
4 | [2H]C([2H])([2H])c1ccc2c(c1)C(=O)N1CCCC[C@H]1c1cc3nc(C4CC4)cc(n3n1)N(C)CCNC(=O)CO2 [Example 100, (18aS)-13-cyclopropyl-11-methyl-2-trideuteriomethyl-8,9,10,11,19,20,21,22-octahydro-18aH,24H-18,15-(metheno)pyrido[2,1-l]pyrimido[6,1-h][1,4,7,9,10,13]benzoxapentaazacyclohexadecine-7,24(6H)-dione] | 0.328 nmol/L | 0.678 nmol/L
5 | [2H]C([2H])([2H])N1CCNC(=O)COc2ccc(Cl)cc2C(=O)N2CCCCC2c2cc3nc(C4CC(O)C4)cc1n3n2 [Example 115, (18aS)-2-chloro-13-(trans-3-hydroxycyclobutyl)-11-trideuteriomethyl-8,9,10,11,19,20,21,22-octahydro-18aH,24H-18,15-(metheno)pyrido[2,1-l]pyrimido[6,1-h][1,4,7,9,10,13]benzoxapentaazacyclohexadecine-7,24(6H)-dione] | 0.344 nmol/L | 0.777 nmol/L
6 | CN1CCOCCOc2ccc(Cl)cc2C(=O)N2CCCC[C@H]2c2cc3nc(N4CC(N)C4)cc1n3n2 [Example 298, (18aS)-13-(3-aminoazetidin-1-yl)-2-chloro-11-methyl-6,7,10,11,19,20,21,22-octahydro-9H,18aH,24H-18,15-(metheno)pyrido[2,1-l]pyrimido[6,1-h][1,4,7,9,10,13]benzodioxatetraazacyclohexadecin-24-one] | – | 3.13 nmol/L
7 | CN1CCn2ccnc2COc2ccc(Cl)cc2C(=O)N2CCCC[C@H]2c2cc3nc(N4CC(N)C4)cc1n3n2 [Example 335, (20aS)-15-(3-amninoazetidin-1-yl)-2-chloro-13-methyl-12,13,21,22,23,24-hexahydro-6H,11H, 20aH,26H-20,17-(metheno)imidazo[2,1-c]pyrido[2,1-l]pyrimido[6,1-h][1,4,7,9,10,13]benzoxapentaazacyclohexadecin-26-one] | – | 10.6 nmol/L
8 | Cc1ccc2c(c1)C(=O)N1CCCCC1c1cc3nc(N4CC(O)C4)cc(n3n1)N(C)CC(C(F)(F)F)NCCO2 [Example 348, (18aS)-13-(3-hydroxyazetidin-1-yl)-2,11-dimethyl-9-(trifluoromethyl)-6,7,8,9,10,11,19,20,21,22-decahydro-18aH,24H-18,15-(metheno)pyrido[2,1-l]pyrimido[6,1-h][1,4,7,9,10,13]benzoxapentaazacyclohexadecin-24-one] | – | 8.2 nmol/L
9 | (18aS)-13-(trans-3-hydroxycyclobutyl)-11-methyl-2-trideuteriomethyl-8,9,10,11,19,20,21,22-octahydro-18aH,24H-18,15-(metheno)pyrido[2,1-l]pyrimido[6,1-h][1,4,7,9,10,13]benzoxapentaazacyclohexadecine-7,24(6H)-dione [Example 118t] | – | 0.72 nmol/L
